Laboratory results reported in article PMC9856672, “SGC-CAMKK2-1: A Chemical Probe for CAMKK2” (Cells, 2023).

Assays:
YSK1 = target: T1, YSK1 (Homo sapiens, UniProt O00506); test: KINOMEscan at 1 μM, YSK1; format: binding; details: 1000 nM, read-out: Percent Control
T1 construct: purchased Eurofins DiscoverX KINOMEscan
Description: (§1) Supplement cells-12-00287-s001.zip/File S2. KinomeScan data for the CAMKK2 probe and negative control.xlsx, sheet "SGC-CAMKK2-1N" | column: Percent Control

PAK1 = target: T2, PAK1 (Homo sapiens, UniProt Q13153); test: KINOMEscan at 1 μM, PAK1; format: binding; details: 1000 nM, read-out: Percent Control
T2 construct: purchased Eurofins DiscoverX KINOMEscan
Description: as §1

STK33 = target: T3, STK33 (Homo sapiens, UniProt Q9BYT3); test: KINOMEscan binding assay at 1 μM, STK33; details: Compound Concentration 1000 nM; read-out: Percent Control
T3 construct: purchased Eurofins DiscoverX KINOMEscan
Description: as §1

MST1 = target: T4, MST1 (Homo sapiens, UniProt Q13043); test: KINOMEscan binding assay at 1 μM, MST1; details: Compound Concentration 1000 nM; read-out: Percent Control
T4 construct: purchased Eurofins DiscoverX KINOMEscan
Description: as §1

IRAK1 = target: T5, IRAK1 (Homo sapiens, UniProt P51617); test: KINOMEscan at 1 μM, IRAK1; format: binding; details: 1000 nM, read-out: Percent Control
T5 construct: purchased Eurofins DiscoverX KINOMEscan
Description: as §1

[1] = target: T6, RSK2(Kin.Dom.1-N-terminal) (Homo sapiens, UniProt P51812); test: KINOMEscan at 1 μM, RSK2(Kin.Dom.1-N-terminal); format: binding; details: 1000 nM, read-out: Percent Control
T6 construct: RSK2(Kin.Dom.1-N-terminal); purchased Eurofins DiscoverX KINOMEscan
Description: as §1

EPHB3 = target: T7, EPHB3 (Homo sapiens, UniProt P54753); test: KINOMEscan at 1 μM, EPHB3; format: binding; details: 1000 nM, read-out: Percent Control
T7 construct: purchased Eurofins DiscoverX KINOMEscan
Description: as §1

MET = target: T8, MET (Homo sapiens, UniProt P08581); test: KINOMEscan at 1 μM, MET; format: binding; details: 1000 nM, read-out: Percent Control
T8 construct: purchased Eurofins DiscoverX KINOMEscan
Description: as §1

DYRK2 [2] = target: T9, DYRK2 (Homo sapiens, UniProt Q92630); test: KINOMEscan at 1 μM, DYRK2; format: binding; details: 1000 nM, read-out: Percent Control
T9 construct: purchased Eurofins DiscoverX KINOMEscan
Description: as §1

PRP4 = target: T10, PRP4 (Homo sapiens, UniProt Q13523); test: KINOMEscan binding assay at 1 μM, PRP4; details: Compound Concentration 1000 nM; read-out: Percent Control
T10 construct: purchased Eurofins DiscoverX KINOMEscan
Description: as §1

MAP3K3 = target: T11, MAP3K3 (Homo sapiens, UniProt Q99759); test: KINOMEscan at 1 μM, MAP3K3; format: binding; details: 1000 nM, read-out: Percent Control
T11 construct: purchased Eurofins DiscoverX KINOMEscan
Description: as §1

PRKCQ = target: T12, PRKCQ (Homo sapiens, UniProt Q04759); test: KINOMEscan binding assay at 1 μM, PRKCQ; details: Compound Concentration 1000 nM; read-out: Percent Control
T12 construct: purchased Eurofins DiscoverX KINOMEscan
Description: as §1

ACVR1 = target: T13, ACVR1 (Homo sapiens, UniProt Q04771); test: KINOMEscan at 1 μM, ACVR1; format: binding; details: 1000 nM, read-out: Percent Control
T13 construct: purchased Eurofins DiscoverX KINOMEscan
Description: as §1

[3] = target: T14, RSK4(Kin.Dom.1-N-terminal) (Homo sapiens, UniProt Q9UK32); test: KINOMEscan at 1 μM, RSK4(Kin.Dom.1-N-terminal); format: binding; details: 1000 nM, read-out: Percent Control
T14 construct: RSK4(Kin.Dom.1-N-terminal); purchased Eurofins DiscoverX KINOMEscan
Description: as §1

HIPK4 = target: T15, HIPK4 (Homo sapiens, UniProt Q8NE63); test: KINOMEscan at 1 μM, HIPK4; format: binding; details: 1000 nM, read-out: Percent Control
T15 construct: purchased Eurofins DiscoverX KINOMEscan
Description: as §1

BMX = target: T16, BMX (Homo sapiens, UniProt P51813); test: KINOMEscan at 1 μM, BMX; format: binding; details: 1000 nM, read-out: Percent Control
T16 construct: purchased Eurofins DiscoverX KINOMEscan
Description: as §1

BRSK1 = target: T17, BRSK1 (Homo sapiens, UniProt Q8TDC3); test: KINOMEscan 1 μM, BRSK1; format: binding; details: 1000 nM; Entrez BRSK1; read-out: Percent Control
T17 construct: purchased Eurofins DiscoverX KINOMEscan
Description: (§2) Supplement cells-12-00287-s001.zip/File S2. KinomeScan data for the CAMKK2 probe and negative control.xlsx, sheet "SGC-CAMKK2-1" | column: Percent Control

[4] = target: T18, EGFR(L747-E749del, A750P) (Homo sapiens, UniProt P00533, A750P/DEL747-749); test: KINOMEscan 1 μM, EGFR(L747-E749del, A750P); format: binding; details: 1000 nM; Entrez EGFR; read-out: Percent Control
T18 construct: purchased Eurofins DiscoverX KINOMEscan
Description: as §2

p38-delta = target: T19, p38-delta (Homo sapiens, UniProt O15264); test: KINOMEscan 1 μM, p38-delta; format: binding; details: 1000 nM; Entrez MAPK13; read-out: Percent Control
T19 construct: purchased Eurofins DiscoverX KINOMEscan
Description: as §2

DYRK1B = target: T20, DYRK1B (Homo sapiens, UniProt Q9Y463); test: KINOMEscan 1 μM, DYRK1B; format: binding; details: 1000 nM; Entrez DYRK1B; read-out: Percent Control
T20 construct: purchased Eurofins DiscoverX KINOMEscan
Description: as §2

BMPR1B = target: T21, BMPR1B (Homo sapiens, UniProt O00238); test: KINOMEscan 1 μM, BMPR1B; format: binding; details: 1000 nM; Entrez BMPR1B; read-out: Percent Control
T21 construct: purchased Eurofins DiscoverX KINOMEscan
Description: as §2

GRK4 = target: T22, GRK4 (Homo sapiens, UniProt P32298); test: KINOMEscan 1 μM, GRK4; format: binding; details: 1000 nM; Entrez GRK4; read-out: Percent Control
T22 construct: purchased Eurofins DiscoverX KINOMEscan
Description: as §2

DYRK2 [5] = target: T9, DYRK2; test: KINOMEscan 1 μM, DYRK2; format: binding; details: 1000 nM; Entrez DYRK2; read-out: Percent Control
Description: as §2

MLCK = target: T23, MLCK (Homo sapiens, UniProt Q32MK0); test: KINOMEscan 1 μM, MLCK; format: binding; details: 1000 nM; Entrez MYLK3; read-out: Percent Control
T23 construct: purchased Eurofins DiscoverX KINOMEscan
Description: as §2

ABL1-phosphorylated = target: T24, ABL1-phosphorylated (Homo sapiens, UniProt P00519); test: KINOMEscan 1 μM, ABL1-phosphorylated; format: binding; details: 1000 nM; Entrez ABL1; read-out: Percent Control
T24 construct: purchased Eurofins DiscoverX KINOMEscan
Description: as §2

MELK = target: T25, MELK (Homo sapiens, UniProt Q14680); test: KINOMEscan 1 μM, MELK; format: binding; details: 1000 nM; Entrez MELK; read-out: Percent Control
T25 construct: purchased Eurofins DiscoverX KINOMEscan
Description: as §2

MEK5 = target: T26, MEK5 (Homo sapiens, UniProt Q13163); test: KINOMEscan 1 μM, MEK5; format: binding; details: 1000 nM; Entrez MAP2K5; read-out: Percent Control
T26 construct: purchased Eurofins DiscoverX KINOMEscan
Description: as §2

PAK6 = target: T27, PAK6 (Homo sapiens, UniProt Q9NQU5); test: KINOMEscan 1 μM, PAK6; format: binding; details: 1000 nM; Entrez PAK6; read-out: Percent Control
T27 construct: purchased Eurofins DiscoverX KINOMEscan
Description: as §2

CLK4 = target: T28, CLK4 (Homo sapiens, UniProt Q9HAZ1); test: KINOMEscan 1 μM, CLK4; format: binding; details: 1000 nM; Entrez CLK4; read-out: Percent Control
T28 construct: purchased Eurofins DiscoverX KINOMEscan
Description: as §2

LRRK2 = target: T29, LRRK2 (Homo sapiens, UniProt Q5S007); test: KINOMEscan 1 μM, LRRK2; format: binding; details: 1000 nM; Entrez LRRK2; read-out: Percent Control
T29 construct: purchased Eurofins DiscoverX KINOMEscan
Description: as §2

PHKG1 = target: T30, PHKG1 (Homo sapiens, UniProt Q16816); test: KINOMEscan 1 μM, PHKG1; format: binding; details: 1000 nM; Entrez PHKG1; read-out: Percent Control
T30 construct: purchased Eurofins DiscoverX KINOMEscan
Description: as §2

WNK3 = target: T31, WNK3 (Homo sapiens, UniProt Q9BYP7); test: KINOMEscan 1 μM, WNK3; format: binding; details: 1000 nM; Entrez WNK3; read-out: Percent Control
T31 construct: purchased Eurofins DiscoverX KINOMEscan
Description: as §2

ACVR2A = target: T32, ACVR2A (Homo sapiens, UniProt P27037); test: KINOMEscan 1 μM, ACVR2A; format: binding; details: 1000 nM; Entrez ACVR2A; read-out: Percent Control
T32 construct: purchased Eurofins DiscoverX KINOMEscan
Description: as §2

T9 sequence (Q92630 whole entry): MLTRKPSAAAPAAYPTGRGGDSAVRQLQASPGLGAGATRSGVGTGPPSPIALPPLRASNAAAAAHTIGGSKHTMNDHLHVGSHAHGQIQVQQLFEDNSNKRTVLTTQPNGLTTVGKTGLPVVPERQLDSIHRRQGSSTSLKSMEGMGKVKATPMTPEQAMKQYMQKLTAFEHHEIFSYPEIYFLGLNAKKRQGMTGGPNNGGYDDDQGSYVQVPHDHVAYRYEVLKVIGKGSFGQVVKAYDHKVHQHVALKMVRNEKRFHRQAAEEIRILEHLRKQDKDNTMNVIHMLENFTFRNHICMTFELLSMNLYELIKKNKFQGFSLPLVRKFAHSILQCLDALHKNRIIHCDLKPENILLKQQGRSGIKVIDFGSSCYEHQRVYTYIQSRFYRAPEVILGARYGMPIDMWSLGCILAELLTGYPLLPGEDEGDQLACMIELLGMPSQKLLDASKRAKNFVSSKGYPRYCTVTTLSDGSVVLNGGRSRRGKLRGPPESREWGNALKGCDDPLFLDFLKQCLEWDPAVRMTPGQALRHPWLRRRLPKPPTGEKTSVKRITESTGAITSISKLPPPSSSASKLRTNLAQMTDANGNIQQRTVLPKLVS
T22 sequence (P32298 whole entry): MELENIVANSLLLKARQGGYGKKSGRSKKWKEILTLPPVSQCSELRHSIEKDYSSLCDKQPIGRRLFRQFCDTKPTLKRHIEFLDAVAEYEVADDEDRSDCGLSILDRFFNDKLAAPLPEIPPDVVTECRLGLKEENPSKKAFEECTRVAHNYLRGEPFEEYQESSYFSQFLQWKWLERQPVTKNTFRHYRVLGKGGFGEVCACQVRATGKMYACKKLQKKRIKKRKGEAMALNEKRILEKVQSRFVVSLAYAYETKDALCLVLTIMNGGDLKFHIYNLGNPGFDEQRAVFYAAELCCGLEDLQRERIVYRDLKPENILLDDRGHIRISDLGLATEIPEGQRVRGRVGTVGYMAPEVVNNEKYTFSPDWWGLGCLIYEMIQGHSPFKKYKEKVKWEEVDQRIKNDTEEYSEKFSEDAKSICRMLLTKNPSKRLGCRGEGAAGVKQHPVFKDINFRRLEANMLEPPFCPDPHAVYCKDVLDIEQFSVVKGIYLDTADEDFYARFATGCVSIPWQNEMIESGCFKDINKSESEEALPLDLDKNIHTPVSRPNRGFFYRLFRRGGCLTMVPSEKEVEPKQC
T8 sequence (P08581 25-1390): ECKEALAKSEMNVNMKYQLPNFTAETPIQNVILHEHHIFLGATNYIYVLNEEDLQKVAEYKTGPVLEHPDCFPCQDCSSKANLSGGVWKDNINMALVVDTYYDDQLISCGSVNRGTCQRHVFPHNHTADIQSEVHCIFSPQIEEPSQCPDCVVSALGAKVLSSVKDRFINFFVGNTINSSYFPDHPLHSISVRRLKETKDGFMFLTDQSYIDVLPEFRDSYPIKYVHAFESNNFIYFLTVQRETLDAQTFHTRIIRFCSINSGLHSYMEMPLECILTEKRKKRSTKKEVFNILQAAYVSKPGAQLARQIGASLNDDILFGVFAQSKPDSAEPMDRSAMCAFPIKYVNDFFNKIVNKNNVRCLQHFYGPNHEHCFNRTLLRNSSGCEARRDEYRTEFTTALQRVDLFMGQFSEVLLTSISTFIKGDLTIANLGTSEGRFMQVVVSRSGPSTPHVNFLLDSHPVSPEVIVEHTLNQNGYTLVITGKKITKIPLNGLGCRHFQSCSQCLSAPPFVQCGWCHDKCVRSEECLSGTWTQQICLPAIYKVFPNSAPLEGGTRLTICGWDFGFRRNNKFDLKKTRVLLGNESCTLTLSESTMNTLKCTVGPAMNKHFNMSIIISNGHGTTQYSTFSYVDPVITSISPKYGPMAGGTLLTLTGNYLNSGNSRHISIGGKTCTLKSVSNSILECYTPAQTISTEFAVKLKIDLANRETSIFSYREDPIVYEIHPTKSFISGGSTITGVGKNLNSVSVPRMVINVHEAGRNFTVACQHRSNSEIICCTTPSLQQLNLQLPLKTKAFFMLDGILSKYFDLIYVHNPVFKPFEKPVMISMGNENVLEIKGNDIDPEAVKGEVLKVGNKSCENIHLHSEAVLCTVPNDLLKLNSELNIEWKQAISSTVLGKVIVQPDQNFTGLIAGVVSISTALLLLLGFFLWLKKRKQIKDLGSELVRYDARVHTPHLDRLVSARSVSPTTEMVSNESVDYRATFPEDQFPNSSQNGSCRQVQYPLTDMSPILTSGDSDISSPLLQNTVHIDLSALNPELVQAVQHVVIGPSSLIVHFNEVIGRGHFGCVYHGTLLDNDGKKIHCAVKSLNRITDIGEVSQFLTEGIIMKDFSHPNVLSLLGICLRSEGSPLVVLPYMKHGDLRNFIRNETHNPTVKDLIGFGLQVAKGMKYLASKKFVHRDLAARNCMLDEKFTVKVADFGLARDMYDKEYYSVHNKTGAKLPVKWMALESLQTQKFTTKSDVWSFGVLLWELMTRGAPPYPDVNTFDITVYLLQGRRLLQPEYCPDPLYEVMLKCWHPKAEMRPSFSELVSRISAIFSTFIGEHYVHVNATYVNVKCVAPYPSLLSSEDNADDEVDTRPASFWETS
T24 sequence (P00519 whole entry): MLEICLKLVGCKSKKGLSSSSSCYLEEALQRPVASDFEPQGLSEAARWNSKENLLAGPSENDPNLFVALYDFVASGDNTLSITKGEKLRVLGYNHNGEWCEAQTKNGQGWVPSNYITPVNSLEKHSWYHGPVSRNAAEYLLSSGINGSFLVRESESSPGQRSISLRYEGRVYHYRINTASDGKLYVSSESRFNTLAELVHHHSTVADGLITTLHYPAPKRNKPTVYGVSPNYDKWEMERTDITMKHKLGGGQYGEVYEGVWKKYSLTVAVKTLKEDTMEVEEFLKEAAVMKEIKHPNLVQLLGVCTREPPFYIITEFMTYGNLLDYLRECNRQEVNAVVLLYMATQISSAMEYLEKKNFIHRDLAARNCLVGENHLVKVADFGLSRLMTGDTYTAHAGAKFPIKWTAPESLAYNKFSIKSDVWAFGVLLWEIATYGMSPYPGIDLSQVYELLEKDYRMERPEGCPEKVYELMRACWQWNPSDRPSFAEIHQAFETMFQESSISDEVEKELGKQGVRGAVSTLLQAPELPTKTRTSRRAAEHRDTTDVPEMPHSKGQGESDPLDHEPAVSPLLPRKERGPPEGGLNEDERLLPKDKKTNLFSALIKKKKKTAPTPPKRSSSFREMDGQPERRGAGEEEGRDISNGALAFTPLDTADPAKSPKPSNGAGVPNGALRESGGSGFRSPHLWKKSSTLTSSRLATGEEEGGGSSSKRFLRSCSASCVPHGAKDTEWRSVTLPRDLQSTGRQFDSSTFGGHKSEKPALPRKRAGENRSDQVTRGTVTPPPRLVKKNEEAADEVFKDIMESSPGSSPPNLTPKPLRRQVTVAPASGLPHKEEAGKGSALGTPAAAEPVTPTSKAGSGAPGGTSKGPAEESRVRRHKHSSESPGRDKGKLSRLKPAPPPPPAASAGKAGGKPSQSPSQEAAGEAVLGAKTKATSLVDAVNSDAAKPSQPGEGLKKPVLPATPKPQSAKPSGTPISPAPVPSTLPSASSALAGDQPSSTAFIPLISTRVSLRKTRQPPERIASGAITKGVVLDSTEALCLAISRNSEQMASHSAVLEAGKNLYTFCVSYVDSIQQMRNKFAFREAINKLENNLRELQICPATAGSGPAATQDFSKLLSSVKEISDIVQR
T11 sequence (Q99759 whole entry): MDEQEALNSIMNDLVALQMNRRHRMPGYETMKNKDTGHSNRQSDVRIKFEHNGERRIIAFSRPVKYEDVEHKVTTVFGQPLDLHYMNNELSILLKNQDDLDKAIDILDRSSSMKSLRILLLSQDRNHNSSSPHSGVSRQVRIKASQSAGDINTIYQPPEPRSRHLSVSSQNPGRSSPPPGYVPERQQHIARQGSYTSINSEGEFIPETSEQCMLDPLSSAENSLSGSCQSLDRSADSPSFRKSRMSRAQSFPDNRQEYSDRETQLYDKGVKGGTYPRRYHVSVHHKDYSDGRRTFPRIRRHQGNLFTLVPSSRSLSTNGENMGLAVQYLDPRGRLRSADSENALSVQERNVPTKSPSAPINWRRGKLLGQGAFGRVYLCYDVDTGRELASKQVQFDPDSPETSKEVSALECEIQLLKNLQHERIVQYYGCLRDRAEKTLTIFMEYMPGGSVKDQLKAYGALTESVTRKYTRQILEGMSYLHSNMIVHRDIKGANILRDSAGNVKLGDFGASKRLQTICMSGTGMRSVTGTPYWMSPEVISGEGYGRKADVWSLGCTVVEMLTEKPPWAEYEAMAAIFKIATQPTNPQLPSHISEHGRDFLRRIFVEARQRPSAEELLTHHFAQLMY
T13 sequence (Q04771 21-509): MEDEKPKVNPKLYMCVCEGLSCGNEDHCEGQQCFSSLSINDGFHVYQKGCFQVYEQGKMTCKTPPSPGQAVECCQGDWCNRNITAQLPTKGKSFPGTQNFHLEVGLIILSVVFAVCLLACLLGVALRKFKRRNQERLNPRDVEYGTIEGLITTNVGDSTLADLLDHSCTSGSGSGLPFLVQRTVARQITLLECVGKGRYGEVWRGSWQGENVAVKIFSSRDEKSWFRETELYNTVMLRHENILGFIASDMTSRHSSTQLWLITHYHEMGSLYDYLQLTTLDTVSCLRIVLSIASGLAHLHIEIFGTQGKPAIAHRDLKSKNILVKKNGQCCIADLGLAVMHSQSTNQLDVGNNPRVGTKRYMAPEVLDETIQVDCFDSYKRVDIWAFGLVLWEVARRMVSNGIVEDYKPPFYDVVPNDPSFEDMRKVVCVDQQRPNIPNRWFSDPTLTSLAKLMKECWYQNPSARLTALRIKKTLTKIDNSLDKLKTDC

Compound: O=C(O)c1ccc(-c2coc3ncc(-c4ccccc4)cc23)cc1Cl [SGC-CAMKK2-1N (UNC-YL-83)]
- remaining binding at 1 µM (YSK1): 66%
- remaining binding at 1 µM (PAK1): 42%
- remaining binding at 1 µM (STK33): 100%
- remaining binding at 1 µM (MST1): 100%
- remaining binding at 1 µM (IRAK1): 68%
- remaining binding at 1 µM [1]: 88%
- remaining binding at 1 µM (EPHB3): 53%
- remaining binding at 1 µM (MET): 91%
- remaining binding at 1 µM (DYRK2 [2]): 100%
- remaining binding at 1 µM (PRP4): 100%
- remaining binding at 1 µM (MAP3K3): 47%
- remaining binding at 1 µM (PRKCQ): 100%
- remaining binding at 1 µM (ACVR1): 85%
- remaining binding at 1 µM [3]: 92%
- remaining binding at 1 µM (HIPK4): 89%
- remaining binding at 1 µM (BMX): 77%

Compound: Cc1cccc(-c2cnc3occ(-c4ccc(C(=O)O)c(C5CCCC5)c4)c3c2)c1 [SGC-CAMKK2-1 (YL-36)]
- remaining binding at 1 µM (BRSK1): 82%
- remaining binding at 1 µM [4]: 87%
- remaining binding at 1 µM (p38-delta): 69%
- remaining binding at 1 µM (DYRK1B): 100%
- remaining binding at 1 µM (BMPR1B): 100%
- remaining binding at 1 µM (GRK4): 100%
- remaining binding at 1 µM (DYRK2 [5]): 69%
- remaining binding at 1 µM (MLCK): 86%
- remaining binding at 1 µM (ABL1-phosphorylated): 98%
- remaining binding at 1 µM (MELK): 79%
- remaining binding at 1 µM (MEK5): 84%
- remaining binding at 1 µM (PAK6): 67%
- remaining binding at 1 µM (CLK4): 100%
- remaining binding at 1 µM (LRRK2): 70%
- remaining binding at 1 µM (PHKG1): 80%
- remaining binding at 1 µM (WNK3): 97%
- remaining binding at 1 µM (ACVR2A): 92%
